Patent publication US20140024687A1, “Combinations of Vascular Disrupting Agents with Inhibitor of Apoptosis Proteins Antagonists” (priority 2009, published 2014)

Key:
[1] = tested on: HS944.t human melanoma xenograft; settings: B 100 mg/kg po qw; A 15 mg/kg iv; combination; days 14 and 21
Protocol: Treatment started on day 14 following subcutaneous implantation of 5.0×10^6 Hs944.t human melanoma cancer cells in 50% basement membrane matrix. Starting tumor volume averaged 245 mm^3 (range=146 to 321); n=8/group. In this study, (s)—N—((S)-1-cyclohexyl-2-{(S)-2-[4-(4-fluoro-benzoyl)-thiazol-2-yl]-pyrrolidin-1-yl}-2-oxo-ethyl)-2-methylamino-propionamide was administered orally (po) at 100 mg/kg, qw, 5,6-dimethylxanthenone-4-acetic acid was administered intravenously (iv) at 15 mg/kg, or (S)—N—((S)-1-cyclohexyl-2-{(S)-2-[4-(4-fluoro-benzoyl)-thiazol-2-yl]-pyrrolidin-1-yl}-2-oxo-ethyl)-2-methylamino-propionamide and 5,6-dimethylxanthenone-4-acetic acid were administered in combination on days 14 and 21 post implantation, Vehicle control for (S)—N—((S)-1-cyclohexyl-2-{(S)-2-[4-(4-fluoro-benzoyl)-thiazol-2-yl]-pyrrolidin-1-yl}-2-oxo-ethyl)-2-methylamino-propionamide is 30% 0.1N HCl and 70% 100 mM sodium acetate buffer, pH 4.63, Vehicle control for 5,6-dimethylxanthenone-4-acetic acid is 10% 1× Tris-HCl and 90% 1×PBS, Statistical analysis performed on tumor volumes from day 14-27 post implantation using a repeated measures MANOVA test.

mouse TNF = experiment: Mouse TNF in MDA-MB-231 breast xenograft tissue after treatment; assay type: in vivo; settings: tumors collected 6 hrs after final dose; n=4, no statistical analysis
Text: (§1) Due to the small sample size (n=4), statistical analysis was not performed.

TNF mRNA = settings: Colon 38 tumor bearing mice (Joseph WR, 1999); cited from earlier work
[2] = tested on: MDA-MB-231 human breast cancer orthotopic xenograft; experiment: Single agent anti-tumor activity, MDA-MB-231 human breast cancer orthotopic xenograft (Example 1); assay type: in vivo, athymic nude mice; settings: day 71 post implantation; Compound B 150 mg/kg po qw days 50, 57, 64; Compound A 20 mg/kg iv days 50, 54, 58; p<0.05 compared to vehicle controls
Protocol: Treatment started on day 50 following orthotopic implantation of 7.5×10^6 MDA-MB-231 human breast cancer cells into the mammary fat pad. Starting tumor volume averaged 160 mm^3 (range=76 to 286); n=8/group. […] The vehicle for […] is 10% Tris-HCl buffer and 90% 1×PBS, Statistical analysis performed on delta tumor volumes on day 71 post implantation using a One-way ANOVA followed by a post hoc Tukey test.

human TNF = experiment: Human TNF in MDA-MB-231 tumor lysates after treatment; assay type: in vivo; settings: tumors collected 6 hrs after final dose; n=4, no statistical analysis
Text: as §1

Compound | surviving animals at study termination [1] | mouse TNF in xenograft tissue (mouse TNF) | TNF mRNA in tumor, spleen, and liver (TNF mRNA) | single agent anti-tumor activity (delta tumor volumes vs vehicle controls) [2] | human TNF in MDA-MB-231 tumor lysates (human TNF)
Cc1ccc2c(=O)c3cccc(CC(=O)O)c3oc2c1C [Compound A, 5,6-dimethylxanthenone-4-acetic acid] | 7/8 | increase in mouse TNF | increase TNF mRNA | demonstrated single agent anti-tumor activity | –
CN[C@@H](C)C(=O)N[C@H](C(=O)N1CCC[C@H]1c1nc(C(=O)c2ccc(F)cc2)cs1)C1CCCCC1 [Compound B, (S)—N—((S)-1-Cyclohexyl-2-{(S)-2-[4-(4-fluoro-benzoyl)-thiazol-2-yl]-pyrrolidin-1-yl}-2-oxo-ethyl)-2-methylamino-propionamide] | – | – | – | demonstrated single agent anti-tumor activity | increase in human TNF
